Assay results from patent US9918968B2, “Rapamycin analogs targeting proteasome function in the treatment of cancer” (THE BOARD OF REGENTS OF THE UNIVERSITY OF TEXAS SYSTEM, priority 2013, dated 2018).
pEC50: −log10 of the molar value.

How the values were obtained:
[1] = system: T1, human 20S proteasome, T-L peptidase; assay: T-L peptidase activity of purified human 20S proteasome (BocLRR-MCA); assay type: biochemical
T1 construct: purchased Enzo LifeSciences
Protocol: Human purified proteasome complexes were purchased from Enzo LifeSciences or Boston Biochemicals (19S complex). BODIPY-casein (Invitrogen/Molecular Probes) was used as a model protein substrate, with increasing fluorescence of BODIPY labeled peptide products of degradation monitored for up to 8 hours at 37° C. The peptidase activity of the enzyme was measured as arbitrary intensity units of the released fluorescent group 7-amino-4-methylcoumarin (AMC) from peptide substrates, as described. The common substrates specific for the three kinds of active sites: succinyl-LeuLeuValTyr-7-amido-4-methylcoumarin (Suc-LLVY-MCA; for the ChT-L activity; Bachem), butoxycarbonyl-LeuArgArg-MCA (BocLRR-MCA; for T-L; Bachem) and carbobenzoxy-LeuLeuGlu-MCA (CbzLLE-MCA; for PGPH; Enzo Life Sciences International, Inc.) were used at 100 μM final concentrations, unless stated otherwise (Gaczynska and Osmulski, 2005). Proteasome substrates, rapamycin, its derivatives, and competing peptides were stocked in DMSO and diluted 100-fold in the reaction mixtures. The Rpt5 and PA200 C-terminal peptides were synthesized in the Departmental Peptide Synthesis Core using the standard SPPS chemistry. To activate the latent 20S proteasome, 0.005% (final concentration) of sodium dodecyl sulfate (SDS) was used. The reactions were carried out in 96 well plates, with 2.3 nM proteasome and other components as indicated dissolved in 50 mM Tris-HCl buffer (pH 8.0) and incubated at 37° C. for up to 1 hour. The fluorescence of products was monitored every 2 minutes with a Fluoroskan Ascent plate reader. Reaction rates were calculated from smoothed linear segment of kinetic curves using OriginPro 8.6 (OriginLabs, Northampton, Mass.). For the determination of an inhibition type, at least six distinct substrate concentrations and two inhibitor concentrations were used. The kinetic parameters of inhibition were analyzed in terms of the Michaelis-Menten formalism using the enzyme kinetic module of SigmaPlot v.12 (Systat Software, Inc, San Jose, Calif.) to perform the respective calculations.
IC50 values (a drug concentration causing 50% inhibition of the indicated enzymatic activity) were calculated for ChT-L and PGPH peptidases. Kd (dissociation constant) and Bmax (maximal activation effect achieved; in % above the control activity) values were calculated for the T-L peptidase. Mean±SD from n=2 or 3 experiments, or data from representative experiments set in duplicates or triplicates, are presented in the table. All three peptidase activities changed by no more than ±20%, without a concentration-dependent trend, upon treatment with up to 10 μM of rapamycin unrelated mTOR inhibitors PI-103 or NVP-BEZ235, in two independent experiments.

[2] = system: MDA-MB-231 (triple-negative breast cancer) cells; assay: Viability/growth of MDA-MB-231 cells; assay type: cell-based, human
Protocol: The cells were grown in 24 or 12-well cell culture plates. […] The final concentration of the solvent was 1% (vol/vol). The number of live and dead cells after the treatment was approximated with calcein AM and ethidium homodimer (LiveDead test, Invitrogen) according to manufacturer's protocol, or by a Trypan Blue exclusion assay. In short, the cells after the treatment were washed three times with PBS and overlaid (surface-growing) or mixed (suspension-growing) with 4 microM calcein AM and 2 microM ethidium homodimer in PBS. […] The cell counts were approximated using standard curves of live and digitonin-killed cells prepared for each strain. Alternatively, after cell treatment the medium was removed, the surface growing cells were overlaid with Trypan Blue solution, and the colorless (live) and blue-colored (dead) cells were counted under the inverted microscope.

[3] = system: T2, 20S proteasome α face; assay: AFM imaging of open/closed conformers of 20S proteasome α face; parameters: species or system human; conditions: 10 μM compound
T2 construct: purchased Enzo LifeSciences
Protocol: AFM imaging of the 20S proteasomes were performed as previously described, in tapping (oscillating) mode in liquid (Osmulski et al., 2009 and Gaczynska and Osmulski, 2011). In short, 3 μL of proteasome preparations diluted to nanomolar concentration were deposited on a freshly cleaved muscovite mica surface. After 2 min incubation allowing electrostatic attachment of the protein particles to mica the droplet was overlaid with 30 microL of 50 mM Tris-HCl buffer (pH 7.0) and mounted in the wet chamber of a MultiMode NanoScope Ma (Bruker Corp.). Oxide-sharpened silicon nitride tips on cantilevers with a nominal spring constant 0.32 N/m (Bruker Corp.) were used to image 1 μm^2 fields in the height mode, with a scan rate of 3.05 Hz. The excitation frequency was manually tuned to 9-10 kHz, with a drive voltage of 200-500 mV and a relatively high set point (1.6 V to 1.9 V) to assure tapping with low, non-destructive force. […] As the inventors established previously, such resolution was sufficient to detect distinct conformations of the α face, covered by six scan lines. Multiple fields were scanned for each sample to collect images of hundreds of particles. Selected fields were repeatedly scanned to monitor changes in topography of the same particles for prolonged time. Inhibitors and the SucLLVY-MCA substrate were diluted in 10 μL of the imaging buffer and directly injected into the chamber. Raw images are presented, with a standard plain-fit and flattening (NanoScope software v.5.12) used as the only processing tools. For display purposes the brightness and contrast of the images was adjusted with the Nanoscope software or with Adobe Photoshop (Adobe Systems Inc.), and outlier scan lines were occasionally manually removed (Nanoscope software). Top view (“standing”, rounded) proteasomes were distinguished from the minor population of side-view (“lying”, rectangular) particles as described, by comparison of their length—to width ratios (Osmulski et al., 2009). The dimensions of particles were approximated and a shape of the α face in top-view proteasomes was judged with the help of a section tool in the Nanoscope v.5.12 or SPIP v.6.02 software (Image Metrology).
For this purpose, the inventors used the noninvasive tapping mode atomic force microscopy (AFM) in liquid, the imaging technique suitable for analysis of surface topography of macromolecules in their native state with a nanometer-scale practical resolution. The inventors established before that AFM imaging is a useful tool for studying structural dynamics of the 20S α face (Osmulski et al., 2009, Gaczynska et al., 2003; Gaczynska et al., 2011). They acquired and analyzed images of hundreds of single native, fully active 20S molecules. The majority of particles were in top-view (“standing”) position conveniently allowing for imaging of their α faces. […] Following previous extensive studies, the inventors refer to the two forms as “closed-gate” and “open-gate” proteasomes, respectively (Osmulski et al., 2009). As described before, the inventors used the shape of sections carried out in four directions through the top portion of the surface topography of the α ring to distinguish between the two forms. In short, the particle was classified as closed if all four sections were cone-shaped. In contrast, the particle was classified as open if all sections presented a dip surrounded by a rim (FIG. 5A) (Osmulski, et al., 2009). The same particles imaged in consecutive scans were able to assume either closed or open conformations, however the cone-shaped particles were always more abundant than crater-shaped, and accounted for about three-quarters of the imaged molecules (FIG. 5B). Addition of rapamycin to the imaged particles remarkably changed the partition of forms. […]

CO[C@@H](C[C@@H]1CC[C@@H](C)[C@](O)(C(=O)C(=O)N2CCCC[C@H]2C(=O)[O-])O1)/C(C)=C/C=C/C=C/[C@@H](C)C[C@@H](C)C(=O)[C@H](OC)[C@H](O)/C(C)=C/[C@@H](C)C(=O)/C=C/[C@H](C)C[C@@H]1CC[C@@H](O)[C@H](OC)C1.[Na+] [seco-rapamycin]
activation of post-basic (T-L) cleavages ([1]; 5 μM): ~2 fold | Kd ([1]; activation of T-L peptidase): 5.33 µM | Bmax [%]: T-L ([1]; maximal activation effect, % above the control activity): 77% | pEC50 ([2]; 24 hours, drug alone, read-out: EC50 (concentration required to exclude 50% of cells)): 6.06 | growth of MDA-MB-231 cells ([2]; seco-rapamycin alone): attenuated growth | closed conformers [3]: ~40% | open conformers [3]: about 60%
